Results: publication PMC3961306, “Comparison of the Cancer Gene Targeting and Biochemical Selectivities of All Targeted Kinase Inhibitors Approved for Clinical Use” (PLoS ONE, 2014)
Where “and” joins values, the source holds several entries; their conditions need not be identical. Equal entries are not always repeated. Where two headings read alike, the source gives them in different places.

Test system: forty-four human cancer cell lines
Assay: Cell proliferation assay (ATPlite, 72 hours) in the 44 cell line Oncolines panel
Assay type: cell-based

An IC50 (Homo sapiens, 769-P, cell line 769-P, read-out: cell panel IC50, 769-P) of 113 nM, an IC50 (Homo sapiens, 786-0, cell line 786-0, read-out: cell panel IC50, 786-0) of 125 nM and an IC50 (Homo sapiens, A 172, read-out: cell panel IC50, A-172, cell line A-172) of 93 nM were found for `COc1cccc2c1C(=O)c1c(O)c3c(c(O)c1C2=O)C[C@@](O)(C(=O)CO)C[C@@H]3O[C@H]1C[C@H](N)[C@H](O)[C@H](C)O1` [doxorubicin] in this work. It also gave an IC50 (Homo sapiens, A498, read-out: cell panel IC50, A-498, cell line A-498) of 96 nM, an IC50 (Homo sapiens, A549, read-out: cell panel IC50, A-549, cell line A-549) of 82 nM and an IC50 (Homo sapiens, A-375, cell line A375, read-out: cell panel IC50, A375) of 38 nM. For the same compound, the IC50 (Homo sapiens, A-427, read-out: cell panel IC50, A-427, cell line A-427) was 27 nM, the IC50 (Homo sapiens, ACHN, cell line ACHN, read-out: cell panel IC50, ACHN) was 61 nM and the IC50 (Homo sapiens, AN3-CA, cell line AN3 CA, read-out: cell panel IC50, AN3 CA) was 75 nM. It also gave an IC50 (Homo sapiens, AU565, read-out: cell panel IC50, AU-565, cell line AU-565) of 73 nM, an IC50 (Homo sapiens, BT-20, cell line BT-20, read-out: cell panel IC50, BT-20) of 190 nM and an IC50 (Homo sapiens, BT-549, read-out: cell panel IC50, BT-549, cell line BT-549) of 76 nM. The IC50 (Homo sapiens, BXPC-3, cell line BxPC-3, read-out: cell panel IC50, BxPC-3) was 172 nM, the IC50 (Homo sapiens, C-33-A, cell line C-33 A, read-out: cell panel IC50, C-33 A) was 26 nM and the IC50 (Homo sapiens, CAL-27, cell line CAL 27, read-out: cell panel IC50, CAL 27) was 21 nM. The IC50 (Homo sapiens, CCRF-CEM, cell line CCRF-CEM, read-out: cell panel IC50, CCRF-CEM) was 17 nM, the IC50 (Homo sapiens, DLD-1, cell line DLD-1, read-out: cell panel IC50, DLD-1) was 437 nM and the IC50 (Homo sapiens, FaDu, cell line FaDu, read-out: cell panel IC50, FaDu) was 45 nM. The IC50 (Homo sapiens, HCT-15, cell line HCT-15, read-out: cell panel IC50, HCT-15) was 237 nM, the IC50 (Homo sapiens, HCT-116, read-out: cell panel IC50, HCT-116, cell line HCT-116) was 44 nM and the IC50 (Homo sapiens, Hs-578T, cell line Hs 578T, read-out: cell panel IC50, Hs 578T) was 80 nM. It also gave an IC50 (Homo sapiens, Jurkat E6.1, cell line Jurkat E6.1, read-out: cell panel IC50, Jurkat E6.1) of 26 nM, an IC50 (Homo sapiens, K562, read-out: cell panel IC50, K-562, cell line K-562) of 55 nM and an IC50 (Homo sapiens, LoVo, cell line LoVo, read-out: cell panel IC50, LoVo) of 49 nM. The IC50 (Homo sapiens, MG-63, cell line MG-63, read-out: cell panel IC50, MG-63) was 56 nM, the IC50 (Homo sapiens, MOLT-4, cell line MOLT-4, read-out: cell panel IC50, MOLT-4) was 12 nM and the IC50 (Homo sapiens, MeWo, cell line MeWo, read-out: cell panel IC50, MeWo) was 204 nM. It also gave an IC50 (Homo sapiens, NCI-H82, cell line NCI-H82, read-out: cell panel IC50, NCI-H82) of 52 nM, an IC50 (Homo sapiens, NCI-H460, cell line NCI-H460, read-out: cell panel IC50, NCI-H460) of 21 nM and an IC50 (Homo sapiens, OVCAR-3, cell line OVCAR-3, read-out: cell panel IC50, OVCAR-3) of 259 nM. For the same compound, the IC50 (Homo sapiens, RPMI-7951, cell line RPMI-7951, read-out: cell panel IC50, RPMI-7951) was 28 nM, the IC50 (Homo sapiens, SK-N-AS, cell line SK-N-AS, read-out: cell panel IC50, SK-N-AS) was 72 nM and the IC50 (Homo sapiens, SW48, cell line SW48, read-out: cell panel IC50, SW48) was 208 nM. For the same compound, the IC50 (Homo sapiens, SW480, cell line SW480, read-out: cell panel IC50, SW480) was 353 nM, the IC50 (Homo sapiens, SW-620, cell line SW620, read-out: cell panel IC50, SW620) was 296 nM and the IC50 (Homo sapiens, U2OS, cell line U-2 OS, read-out: cell panel IC50, U-2 OS) was 109 nM. For the same compound, the IC50 (Homo sapiens, U-87 MG, 72 h, U-87 MG cell line, ATPlite, 72 hours, read-out: IC50 in cell proliferation assay (table S5 cellpanel data)) was 111 nM, the IC50 (Homo sapiens, cell line J82, read-out: cell panel IC50, J82) was 151 nM and the IC50 (Homo sapiens, cell line PA-1, read-out: cell panel IC50, PA-1) was 4 nM. For the same compound, the IC50 (Homo sapiens, cell line SJCRH30, read-out: cell panel IC50, SJCRH30) was 71 nM, the IC50 (Homo sapiens, cell line SR, read-out: cell panel IC50, SR) was 6 nM and the IC50 (U-87 MG cell line, ATPlite, 72 hours, read-out: IC50 in cell proliferation assay (table S5 cellpanel data)) was 89 nM. For the same compound, the IC50 (cell line 769-P, read-out: cell panel IC50, 769-P) was 142 nM and 144 nM, the IC50 (cell line 786-0, read-out: cell panel IC50, 786-0) was 103 nM and the IC50 (cell line A375, read-out: cell panel IC50, A375) was 35 nM and 51 nM. For the same compound, the IC50 (cell line ACHN, read-out: cell panel IC50, ACHN) was 84 nM, the IC50 (cell line AN3 CA, read-out: cell panel IC50, AN3 CA) was 81 nM and 94 nM and the IC50 (cell line BT-20, read-out: cell panel IC50, BT-20) was 207 nM and 157 nM. For the same compound, the IC50 (cell line BxPC-3, read-out: cell panel IC50, BxPC-3) was 227 nM and 286 nM, the IC50 (cell line CAL 27, read-out: cell panel IC50, CAL 27) was 20 nM and the IC50 (cell line CCRF-CEM, read-out: cell panel IC50, CCRF-CEM) was 20 nM. The IC50 (cell line DLD-1, read-out: cell panel IC50, DLD-1) was 429 nM and 346 nM, the IC50 (cell line FaDu, read-out: cell panel IC50, FaDu) was 47 nM and 57 nM and the IC50 (cell line HCT-15, read-out: cell panel IC50, HCT-15) was 254 nM and 276 nM. For the same compound, the IC50 (cell line Hs 578T, read-out: cell panel IC50, Hs 578T) was 89 nM and 58 nM, the IC50 (cell line J82, read-out: cell panel IC50, J82) was 144 nM and 135 nM and the IC50 (cell line Jurkat E6.1, read-out: cell panel IC50, Jurkat E6.1) was 31 nM and 24 nM. For the same compound, the IC50 (cell line LoVo, read-out: cell panel IC50, LoVo) was 59 nM, the IC50 (cell line MG-63, read-out: cell panel IC50, MG-63) was 67 nM and 87 nM and the IC50 (cell line MOLT-4, read-out: cell panel IC50, MOLT-4) was 11 nM and 13 nM. For the same compound, the IC50 (cell line MeWo, read-out: cell panel IC50, MeWo) was 226 nM and 264 nM, the IC50 (cell line NCI-H82, read-out: cell panel IC50, NCI-H82) was 65 nM and the IC50 (cell line NCI-H460, read-out: cell panel IC50, NCI-H460) was 25 nM. For the same compound, the IC50 (cell line OVCAR-3, read-out: cell panel IC50, OVCAR-3) was 314 nM and 276 nM, the IC50 (cell line PA-1, read-out: cell panel IC50, PA-1) was 5.26 nM and 6.46 nM and the IC50 (cell line RPMI-7951, read-out: cell panel IC50, RPMI-7951) was 33 nM and 32 nM. For the same compound, the IC50 (cell line SJCRH30, read-out: cell panel IC50, SJCRH30) was 62 nM and 43 nM, the IC50 (cell line SK-N-AS, read-out: cell panel IC50, SK-N-AS) was 100 nM and the IC50 (cell line SR, read-out: cell panel IC50, SR) was 6.54 nM and 10 nM. For the same compound, the IC50 (cell line SW48, read-out: cell panel IC50, SW48) was 112 nM and 121 nM, the IC50 (cell line SW480, read-out: cell panel IC50, SW480) was 315 nM and 369 nM and the IC50 (cell line SW620, read-out: cell panel IC50, SW620) was 354 nM and 446 nM. The IC50 (cell line U-2 OS, read-out: cell panel IC50, U-2 OS) was 115 nM and 153 nM, the IC50 (read-out: cell panel IC50, A-172, cell line A-172) was 95 nM and the IC50 (read-out: cell panel IC50, A-427, cell line A-427) was 31 nM and 40 nM. For the same compound, the IC50 (read-out: cell panel IC50, A-498, cell line A-498) was 92 nM and 91 nM, the IC50 (read-out: cell panel IC50, A-549, cell line A-549) was 68 nM and the IC50 (read-out: cell panel IC50, AU-565, cell line AU-565) was 94 nM and 79 nM. The IC50 (read-out: cell panel IC50, BT-549, cell line BT-549) was 90 nM, the IC50 (read-out: cell panel IC50, HCT-116, cell line HCT-116) was 62 nM and 64 nM and the IC50 (read-out: cell panel IC50, K-562, cell line K-562) was 57 nM.
